Measured values: patent EP4166651A1, “METHODS AND COMPOSITION TO INCREASE CELLULAR GLUTATHIONE LEVEL” (priority 2021, dated 2023)
Where a SMILES comes first, the peptide text is derived from it. Bridges are numbered along the chain shown (N, C = ends). Roman numbers before positions name the chains, in order.

Legend:
[1] = test system: human bone marrow stromal cells, mesenchymal stem cells (MSC)
Experimental: The assay was performed with human bone marrow stromal cells, mesenchymal stem cells (MSC). In a first step, the cells were seeded in a white 96-well cell culture plate and incubated for 24 h in a CO2-Incubator (37°C, 5% CO2, 95% humidity) at a cell density of 5.000 cells/well. After the resting time of 24 hours, diluted samples containing test compounds were added to the plate in equal volumes of 50 µl to reach the desired concentrations of interest and a final volume of 100 µl per well. Samples of L-cysteine were compared to Cys-peptides and each sample was tested in triplicates. The control was rested in medium without sample. […] The viability was determined based on the quantification of the ATP present in the cells per well. Through the luminescence detection of luciferase using a multiplate reader the ATP amount was measured and quantified. Resulting luminescence signal of samples was normalized to the signal of control cells. […] The viability was determined based on the quantification of the ATP present in the cells per well. Through the luminescence detection of luciferase using a multiplate reader the ATP amount was measured and quantified. Resulting luminescence signal of samples was normalized to the signal of control cells.

[2] = test system: Chinese hamster ovary cells (CHO-K1); test: In vitro Glutathione assay (GSH/GSSG-Glo) after H2O2-induced oxidative stress; format: cell-based; details: 24 h pre-incubation or constant incubation, 100 µM H2O2 for 20 min, with and without FBS, compared to medium control not treated with H2O2
Experimental: The addition of Cys-peptides and mixtures of Cys-peptides with L-cysteine and L-cystine to the cell culture medium was evaluated regarding their influence on the intracellular glutathione level. Oxidative stress was simulated by the addition of hydrogen peroxide solution. The assay was performed with Chinese hamster ovary cells (CHO-K1). […] In relation to the oxidative stress conditions the cells were pre-incubated or constantly incubated with Cys-peptide samples. […] The samples (Ala-Cys)2 and (Lys-Cys)2 were dissolved in culture medium, either containing 10% fetal bovine serum (FBS) or medium without FBS, to perform the assay setup in presence and absence of FBS during the stress phase. […] This leads to luminescence signals which were measured in a multiplate reader. To calculate the GSH concentrations, a dilution series of a glutathione standard was performed, and luminescence signals measured. Relative luminescence signals were plotted against GSH concentrations. After subtracting the background signals, GSH concentration in samples was calculated based on the linear standard curve. […] After luminescence signals were measured, the intracellular glutathione concentration of cells incubated with Cys-peptides and mixtures and treated with 100 µM H2O2 were compared to a medium control, which was not treated with H2O2.

[3] = cell culture media relevant pH of about 7; cited from earlier work

Row | Compound | viability of MSCs [1] | intracellular glutathione level [2] | solubility [3]
1 | C[C@H](N)C(=O)N[C@@H](CSSC[C@H](NC(=O)[C@H](C)N)C(=O)O)C(=O)O [(Ala-Cys)2, N,N'-di-L-alanyl-L-cystine] (I: H-Ala-Cys-OH / II: H-Ala-Cys-OH; disulfide I:2-II:2) | does not have a negative effect on the viability |  | 
2 | N[C@@H](CS)C(=O)O [L-Cysteine] | negatively affects viability | increase intracellular glutathione concentration | 
3 | N[C@@H](CSSC[C@H](N)C(=O)O)C(=O)O [cystine, L-cystine] |  |  | around 1 mM
